# Patent US7566712B2, “Biaryl piperazinyl-pyridine analogues” (Neurogen Corporation, priority 2003, dated 2009)
# Target: T1, human capsaicin receptor (Homo sapiens, UniProt Q8NER1)
# T1 construct: pBK-CMV expression construct encoding the full length human capsaicin receptor; expressed in transfected cells
# Assay: Calcium mobilization assay, determination of antagonist activity (Example 6)
# Type: cell-based
# Settings: determined as described in Example 6 (calcium mobilization, antagonist activity); Table II
# Procedure, shortened: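 HEK293 clonal lines stably expressing full-length human capsaicin receptor, loaded with Fluo-3 AM in KRH buffer pH 7.4, 1–2 h at 37 °C. Compounds (1–5 μM final) preincubated 0.5–6 h at room temperature, then capsaicin at its EC50 added. FLIPR/Fluoroskan calcium signal; IC50 as 50% decrease of capsaicin response.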
# T1 sequence (Q8NER1 whole entry): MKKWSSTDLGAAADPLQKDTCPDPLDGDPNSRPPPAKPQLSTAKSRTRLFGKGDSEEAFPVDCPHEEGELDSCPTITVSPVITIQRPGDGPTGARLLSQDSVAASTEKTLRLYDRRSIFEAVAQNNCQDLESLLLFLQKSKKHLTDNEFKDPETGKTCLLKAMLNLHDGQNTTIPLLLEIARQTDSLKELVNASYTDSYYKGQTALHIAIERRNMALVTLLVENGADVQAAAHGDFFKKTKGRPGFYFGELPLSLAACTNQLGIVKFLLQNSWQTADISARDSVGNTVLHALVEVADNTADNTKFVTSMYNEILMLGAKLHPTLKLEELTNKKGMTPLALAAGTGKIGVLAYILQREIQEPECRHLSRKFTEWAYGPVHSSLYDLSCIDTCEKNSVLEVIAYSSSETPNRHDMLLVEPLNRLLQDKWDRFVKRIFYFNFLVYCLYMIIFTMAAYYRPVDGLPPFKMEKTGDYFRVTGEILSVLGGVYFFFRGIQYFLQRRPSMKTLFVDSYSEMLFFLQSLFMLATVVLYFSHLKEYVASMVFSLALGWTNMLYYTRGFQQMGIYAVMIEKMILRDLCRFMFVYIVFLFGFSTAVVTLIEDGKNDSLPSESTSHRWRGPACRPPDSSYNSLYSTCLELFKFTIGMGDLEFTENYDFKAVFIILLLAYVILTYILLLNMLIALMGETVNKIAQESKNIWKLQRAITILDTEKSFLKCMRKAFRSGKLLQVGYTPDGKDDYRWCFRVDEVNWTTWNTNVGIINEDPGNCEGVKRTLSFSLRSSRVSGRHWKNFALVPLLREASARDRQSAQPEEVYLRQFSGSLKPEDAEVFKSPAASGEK
row,SMILES,IC50 [nM]
1,"CN(C)C(=O)[C@@H]1CCCN1c1nc(-c2ccc(F)c(Cl)c2)cc(N2CCN(c3ncccc3C(F)(F)F)CC2)n1 [Example 711, 1-(4-(3-chloro-4-fluorophenyl)-6-{4-[3-(trifluoromethyl)pyridin-2-yl]piperazin-1-yl}pyrimidin-2-yl)-N,N-dimethyl-L-prolinamide]",≤ 1000
2,"CN(C)C[C@@H]1CCCN1c1nc(-c2ccc(F)c(Cl)c2)cc(N2CCN(c3ncccc3C(F)(F)F)CC2)n1 [Example 712, 1-[(2S)-1-(4-(3-chloro-4-fluorophenyl)-6-{4-[3-(trifluoromethyl)pyridin-2-yl]piperazin-1-yl}pyrimidin-2-yl)pyrrolidin-2-yl]-N,N-dimethylmethanamine]",≤ 1000
3,"Fc1ccc(-c2cc(N3CCN(c4ncccc4Cl)CC3)nc(N3CCCC3)n2)cc1Cl [Example 713, 4-(3-chloro-4-fluorophenyl)-6-[4-(3-chloropyridin-2-yl)piperazin-1-yl]-2-pyrrolidin-1-ylpyrimidine]",≤ 1000
4,"CC1CCCN1c1nc(-c2ccc(F)c(Cl)c2)cc(N2CCN(c3ncccc3Cl)CC2)n1 (stereo not drawn) [Example 714, 4-(3-chloro-4-fluorophenyl)-6-[4-(3-chloropyridin-2-yl)piperazin-1-yl]2-(2-methylpyrrolidin-1-yl)pyrimidine]",≤ 1000
5,"Fc1ccc(-c2cc(N3CCN(c4ncccc4Cl)CC3)nc(N3CCCCC3)n2)cc1Cl [Example 715, 4-(3-chloro-4-fluorophenyl)-6-[4-(3-chloropyridin-2-yl)piperazin-1-yl]-2-piperidin-1-ylpyrimidine]",≤ 1000
6,"Cc1cc(-c2cc(N3CCN(c4ncccc4C(F)(F)F)CC3)nc(N3CCN(C(C)C)CC3)n2)ccc1F [Example 716, 4-(4-fluoro-3-methylphenyl)-2-(4-isopropylpiperazin-1-yl)-6-{4-[3-(trifluoromethyl)pyridin-2-yl]piperazin-1-yl}pyrimidine]",≤ 1000
7,"Cc1cc(-c2cc(N3CCN(c4ncccc4Cl)CC3)nc(N3CCCCC3)n2)ccc1F [Example 717, 4-[4-(3-chloropyridin-2-yl)piperazin-1-yl]-6-(4-fluoro-3-methylphenyl)-2-piperidin-1-ylpyrimidine]",≤ 1000
8,"Cc1cc(-c2cc(N3CCN(c4ncccc4Cl)C[C@H]3C)nc(N3CCCC3)n2)ccc1F [Example 718, 4-[(2R)-4-(3-chloropyridin-2-yl)-2-methylpiperazin-1-yl]-6-(4-fluoro-3-methylphenyl)-2-pyrrolidin-1-ylpyrimidine]",≤ 1000
9,"Cc1cc(-c2cc(N3CCN(c4ncccc4Cl)C[C@H]3C)nc(N3CCCC3C)n2)ccc1F (stereo partly drawn) [Example 719, 4-[(2R)-4-(3-chloropyridin-2-yl)-2-methylpiperazin-1-yl]-6-(4-fluoro-3-methylphenyl)-2-(2-methylpyrrolidin-1-yl)pyrimidine]",≤ 1000
10,"Cc1cc(-c2cc(N3CCN(c4ncccc4Cl)C[C@H]3C)nc(N3CCCCC3)n2)ccc1F [Example 720, 4-[(2R)-4-(3-chloropyridin-2-yl)-2-methylpiperazin-1-yl]-6-(4-fluoro-3-methylphenyl)-2-piperidin-1-ylpyrimidine]",≤ 1000
11,"CCN(CC)c1nc(-c2ccc(F)c(C)c2)cc(N2CCN(c3ncccc3Cl)CC2)n1 [Example 721, 4-[4-(3-chloropyridin-2-yl)piperazin-1-yl]-N,N-diethyl-6-(4-fluoro-3-methylphenyl)pyrimidin-2-amine]",≤ 1000
12,"C[C@@H]1CN(c2ncccc2Cl)CCN1c1cc(-c2ccc(F)c(Cl)c2)nc(SCc2ccccc2)n1 [Example 722, 2-(benzylthio)-4-(3-chloro-4-fluorophenyl)-6-[(2R)-4-(3-chloropyridin-2-yl)-2-methylpiperazin-1-yl]pyrimidine]",≤ 1000
13,"C[C@@H]1CN(c2ncccc2Cl)CCN1c1cc(-c2ccc(F)c(Cl)c2)nc(S(=O)(=O)Cc2ccccc2)n1 [Example 723, 2-(benzylsulfonyl)-4-(3-chloro-4-fluorophenyl)-6-[(2R)-4-(3-chloropyridin-2-yl)-2-methylpiperazin-1-yl]pyrimidine]",≤ 1000
14,"CCN(CC)c1nc(-c2ccc(F)c(Cl)c2)cc(N2CCN(c3ncccc3Cl)CC2)n1 [Example 724, 4-(3-chloro-4-fluorophenyl)-6-[4-(3-chloropyridin-2-yl)piperazin-1-yl]-N,N-diethylpyrimidin-2-amine]",≤ 1000
15,"CC(C)N(C)c1nc(-c2ccc(F)c(Cl)c2)cc(N2CCN(c3ncccc3Cl)CC2)n1 [Example 725, 4-(3-chloro-4-fluorophenyl)-6-[4-(3-chloropyridin-2-yl)piperazin-1-yl]-N-isopropyl-N-methylpyrimidin-2-amine]",≤ 1000
16,COC[C@@H]1CCCN1c1nc(-c2ccc(F)c(C)c2)cc(N2CCN(c3ncccc3Cl)CC2)n1 [Example 726],≤ 1000
17,"COC[C@H]1CCCN1c1nc(-c2ccc(F)c(C)c2)cc(N2CCN(c3ncccc3Cl)C[C@H]2C)n1 [Example 728, 4-[(2R)-4-(3-chloropyridin-2-yl)-2-methylpiperazin-1-yl]-6-(4-fluoro-3-methylphenyl)-2-[(2R)-2-(methoxymethyl)pyrrolidin-1-yl]pyrimidine]",≤ 1000
18,"COC[C@@H]1CCCN1c1nc(-c2ccc(F)c(C)c2)cc(N2CCN(c3ncccc3Cl)C[C@H]2C)n1 [Example 729, 4-[(2R)-4-(3-chloropyridin-2-yl)-2-methylpiperazin-1-yl]-6-(4-fluoro-3-methylphenyl)-2-[(2S)-2-(methoxymethyl)pyrrolidin-1-yl]pyrimidine]",≤ 1000
19,"Cc1cc(-c2cc(N3CCN(c4ncccc4Cl)CC3)nc(N(C)C(C)C)n2)ccc1F [Example 730, 4-[4-(3-chloropyridin-2-yl)piperazin-1-yl]-6-(4-fluoro-3-methylphenyl)-N-isopropyl-N-methylpyrimidin-2-amine]",≤ 1000
20,"C[C@@H]1CN(c2ncccc2Cl)CCN1c1cc(-c2ccc(F)c(Cl)c2)nc(N2CCCC2)n1 [Example 731, 4-(3-chloro-4-fluorophenyl)-6-[(2R)-4-(3-chloropyridin-2-yl)-2-methylpiperazin-1-yl]-2-pyrrolidin-1-ylpyrimidine]",≤ 1000
21,"CC1CCCN1c1nc(-c2ccc(F)c(Cl)c2)cc(N2CCN(c3ncccc3Cl)C[C@H]2C)n1 (stereo partly drawn) [Example 732, 4-(3-chloro-4-fluorophenyl)-6-[(2R)-4-(3-chloropyridin-2-yl)-2-methylpiperazin-1-yl]-2-(2-methylpyrrolidin-1-yl)pyrimidine]",≤ 1000

# The remaining lines, values ahead:
row,IC50 [nM],SMILES
1,≤ 1000,"CC1(C)CCCN1c1nc(-c2ccc(F)c(Cl)c2)cc(N2CCN(c3ncccc3C(F)(F)F)CC2)n1 [Example 699, 4-(3-chloro-4-fluorophenyl)-2-(2,2-dimethylpyrrolidin-1-yl)-6-{4-[3-(trifluoromethyl)pyridin-2-yl]piperazin-1-yl}pyrimidine]"
2,≤ 1000,"Fc1ccc(-c2cc(N3CCN(c4ncccc4Cl)CC3)nc(SCc3ccccc3)n2)cc1Cl [Example 700, 2-(benzylthio)-4-(3-chloro-4-fluorophenyl)-6-[4-(3-chloropyridin-2-yl)piperazin-1-yl]pyrimidine]"
3,≤ 1000,"O=S(=O)(Cc1ccccc1)c1nc(-c2ccc(F)c(Cl)c2)cc(N2CCN(c3ncccc3Cl)CC2)n1 [Example 701, 2-(benzylsulfonyl)-4-(3-chloro-4-fluorophenyl)-6-[4-(3-chloropyridin-2-yl)piperazin-1-yl]pyrimidine]"
4,≤ 1000,"Cc1cccnc1N1CCN(c2cc(-c3ccc(F)cc3)nc(N3CCCC3C)n2)CC1 (stereo not drawn) [Example 702, 4-(4-fluorophenyl)-6-[4-(3-methylpyridin-2-yl)piperazin-1-yl]-2-(2-methylpyrrolidin-1-yl)pyrimidine]"
5,≤ 1000,"Cc1cccnc1N1CCN(c2cc(-c3ccc(F)c(F)c3)nc(N3CCCC3C)n2)CC1 (stereo not drawn) [Example 703, 4-(3,4-difluorophenyl)-6-[4-(3-methylpyridin-2-yl)piperazin-1-yl]-2-(2-methylpyrrolidin-1-yl)pyrimidine]"
6,≤ 1000,"CC1CCCN1c1nc(-c2ccc(F)c(F)c2)cc(N2CCN(c3ncccc3C(F)(F)F)CC2)n1 (stereo not drawn) [Example 704, 4-(3,4-difluorophenyl)-2-(2-methylpyrrolidin-1-yl)-6-{4-[3-(trifluoromethyl)pyridin-2-yl]piperazin-1-yl}pyrimidine]"
7,≤ 1000,"CC1CCCN1c1nc(-c2ccc(F)cc2)cc(N2CCN(c3ncccc3C(F)(F)F)CC2)n1 (stereo not drawn) [Example 705, 4-(4-fluorophenyl)-2-(2-methylpyrrolidin-1-yl)-6-{4-[3-(trifluoromethyl)pyridin-2-yl]piperazin-1-yl}pyrimidine]"
8,≤ 1000,"Cc1cccc(-c2cc(N3CCN(c4ncccc4C(F)(F)F)CC3)nc(N3CCCC3C)n2)c1 (stereo not drawn) [Example 706, 4-(3-methylphenyl)-2-(2-methylpyrrolidin-1-yl)-6-{4-[3-(trifluoromethyl)pyridin-2-yl]piperazin-1-yl}pyrimidine]"
9,≤ 1000,"CC1CCCN1c1nc(-c2ccc(F)c(Cl)c2)cc(N2CCN(c3ncccc3F)CC2)n1 (stereo not drawn) [Example 707, 4-(3-chloro-4-fluorophenyl)-6-(4-(3-fluoropyridin-2-yl)piperazin-1-yl]-2-(2-methylpyrrolidin-1-yl)pyrimidine]"
10,≤ 1000,"Cc1cc(-c2cc(N3CCN(c4ncccc4F)CC3)nc(N3CCCC3C)n2)ccc1F (stereo not drawn) [Example 708, 4-(4-fluoro-3-methylphenyl)-6-[4-(3-fluoropyridin-2-yl)piperazin-1-yl]-2-(2-methylpyrrolidin-1-yl)pyrimidine]"
11,≤ 1000,"CC1CCCN1c1nc(-c2ccc(F)c(Cl)c2)cc(N2CCN(c3ncccc3C#N)CC2)n1 (stereo not drawn) [Example 709, 2-{4-[6-(3-chloro-4-fluorophenyl)-2-(2-methylpyrrolidin-1-yl)pyrimidin-4-yl]piperazin-1-yl}nicotirionitrile]"
12,≤ 1000,"Fc1ccc(-c2cc(N3CCN(c4ncccc4C(F)(F)F)CC3)nc(N3CCC3)n2)cc1Cl [Example 710, 2-azetidin-1-yl-4-(3-chloro-4-fluorophenyl)-6-{4-[3-(trifluoromethyl)pyridin-2-yl]piperazin-1-yl}pyrimidine]"
